pIC50: −log10 of the molar value.
Test system: 186277-243-T-J2-PDC complex spheroids, viability
Assay: Anticancer human tumor 186277-243-T-J2-PDC patient-derived colon adenocarcinoma cell line growth inhibition [RAS]
Settings: for pIC50: curve of first compound; for viability, T/C: stronger effect = lower value
Summary of the method: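 Tumour cells grown as complex spheroids with HUVEC endothelial cells and mesenchymal stem cells, treated with RAS pathway inhibitor combinations. Each agent spans half-log steps from near clinical Cmax, or 10 microM where Cmax is unknown.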
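Note: spheroids exposed to compounds for 7 days before viability read.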

**Q.** How did the pIC50 (second compound 0.000949 µM) turn out when CC(Nc1ccc2c(c1)OCCn1cc(N3C(=O)OCC3C(F)F)nc1-2)C(N)=O (configuration not stated) + CCn1c(-c2cccnc2C(C)OC)c2c3cc(ccc31)N1CCOC(CC(NC(=O)C(C(C)C)N(C)C(=O)C3(F)CCN(C(=O)C#CC(C)(C)N(C)C)CC3)C(=O)N3CCCC(N3)C(=O)OCC(C)(C)C2)C1 was run?
**A.** Its pIC50 is 5.23.

**Q.** What about the pIC50 (second compound 0.003 µM) of the same compound?
**A.** Its pIC50 is 5.23.

**Q.** What about the pIC50 (second compound 0.00949 µM) of the same compound?
**A.** The pIC50 was 5.25.

**Q.** And the pIC50 (second compound 0.03 µM)?
**A.** Its pIC50 is 5.24.

**Q.** And the pIC50 (second compound 0.0949 µM)?
**A.** The pIC50 was 5.59.

**Q.** What about the pIC50 (second compound 0.3 µM) of the same compound?
**A.** Its pIC50 is 6.50.

**Q.** What about the viability, T/C (second compound 0.000949 µM, first compound 0.0316 µM) of the same compound?
**A.** The viability, T/C was 108%.

**Q.** What about the viability, T/C (second compound 0.000949 µM, first compound 0.1 µM) of the same compound?
**A.** Its viability, T/C is 97.7%.

**Q.** What about the viability, T/C (second compound 0.000949 µM, first compound 0.316 µM) of the same compound?
**A.** The viability, T/C was 70.5%.

**Q.** What about the viability, T/C (second compound 0.000949 µM, first compound 1 µM) of the same compound?
**A.** Its viability, T/C is 49.3%.

**Q.** What about the viability, T/C (second compound 0.000949 µM, first compound 3.16 µM) of the same compound?
**A.** Its viability, T/C is 96.2%.

**Q.** What about the viability, T/C (second compound 0.000949 µM, first compound 10 µM) of the same compound?
**A.** The viability, T/C was 21.1%.

**Q.** What about the viability, T/C (second compound 0.003 µM, first compound 0.0316 µM) of the same compound?
**A.** The viability, T/C was 95.1%.

**Q.** And the viability, T/C (second compound 0.003 µM, first compound 0.1 µM)?
**A.** Its viability, T/C is 90.1%.

**Q.** And the viability, T/C (second compound 0.003 µM, first compound 0.316 µM)?
**A.** The viability, T/C was 66.2%.

**Q.** What about the viability, T/C (second compound 0.003 µM, first compound 1 µM) of the same compound?
**A.** Its viability, T/C is 55.3%.

**Q.** And the viability, T/C (second compound 0.003 µM, first compound 3.16 µM)?
**A.** Its viability, T/C is 105%.

**Q.** And the viability, T/C (second compound 0.003 µM, first compound 10 µM)?
**A.** The viability, T/C was 21.8%.

**Q.** What about the viability, T/C (second compound 0.00949 µM, first compound 0.0316 µM) of the same compound?
**A.** Its viability, T/C is 78.8%.

**Q.** What about the viability, T/C (second compound 0.00949 µM, first compound 0.1 µM) of the same compound?
**A.** Its viability, T/C is 94%.

**Q.** And the viability, T/C (second compound 0.00949 µM, first compound 0.316 µM)?
**A.** Its viability, T/C is 74.3%.

**Q.** What about the viability, T/C (second compound 0.00949 µM, first compound 1 µM) of the same compound?
**A.** The viability, T/C was 52.1%.

**Q.** And the viability, T/C (second compound 0.00949 µM, first compound 3.16 µM)?
**A.** The viability, T/C was 102%.

**Q.** What about the viability, T/C (second compound 0.00949 µM, first compound 10 µM) of the same compound?
**A.** Its viability, T/C is 19.8%.

**Q.** What about the viability, T/C (second compound 0.03 µM, first compound 0.0316 µM) of the same compound?
**A.** The viability, T/C was 105%.

**Q.** What about the viability, T/C (second compound 0.03 µM, first compound 0.1 µM) of the same compound?
**A.** The viability, T/C was 91.7%.

**Q.** What about the viability, T/C (second compound 0.03 µM, first compound 0.316 µM) of the same compound?
**A.** The viability, T/C was 65.3%.

**Q.** What about the viability, T/C (second compound 0.03 µM, first compound 1 µM) of the same compound?
**A.** Its viability, T/C is 48%.

**Q.** What about the viability, T/C (second compound 0.03 µM, first compound 3.16 µM) of the same compound?
**A.** Its viability, T/C is 108%.

**Q.** What about the viability, T/C (second compound 0.03 µM, first compound 10 µM) of the same compound?
**A.** Its viability, T/C is 17.6%.

**Q.** And the viability, T/C (second compound 0.0949 µM, first compound 0.0316 µM)?
**A.** Its viability, T/C is 102%.

**Q.** And the viability, T/C (second compound 0.0949 µM, first compound 0.1 µM)?
**A.** The viability, T/C was 91.9%.

**Q.** And the viability, T/C (second compound 0.0949 µM, first compound 0.316 µM)?
**A.** Its viability, T/C is 59.2%.

**Q.** And the viability, T/C (second compound 0.0949 µM, first compound 1 µM)?
**A.** The viability, T/C was 38.5%.

**Q.** What about the viability, T/C (second compound 0.0949 µM, first compound 3.16 µM) of the same compound?
**A.** Its viability, T/C is 97.8%.

**Q.** What about the viability, T/C (second compound 0.0949 µM, first compound 10 µM) of the same compound?
**A.** The viability, T/C was 12.3%.

**Q.** And the viability, T/C (second compound 0.3 µM, first compound 0.0316 µM)?
**A.** The viability, T/C was 96.1%.

**Q.** What about the viability, T/C (second compound 0.3 µM, first compound 0.1 µM) of the same compound?
**A.** Its viability, T/C is 66.4%.

**Q.** What about the viability, T/C (second compound 0.3 µM, first compound 0.316 µM) of the same compound?
**A.** The viability, T/C was 47.1%.

**Q.** What about the viability, T/C (second compound 0.3 µM, first compound 1 µM) of the same compound?
**A.** The viability, T/C was 25.4%.

**Q.** What about the viability, T/C (second compound 0.3 µM, first compound 3.16 µM) of the same compound?
**A.** The viability, T/C was 86.4%.

**Q.** What about the viability, T/C (second compound 0.3 µM, first compound 10 µM) of the same compound?
**A.** The viability, T/C was 7.8%.

Source: PubChem BioAssay AID2060908 (Molecular Pharmacology Branch, DTP, NCI, 2025)
